Measurements as given in US20050209157A1, “Short bioactive peptides and methods for their use” (priority 2001, published 2005).
No end group written: not given here.

Legend:
S. epidermidis C621 = type: cell-based, Staphylococcus epidermidis; settings: Table 15
E. coli UB1005 = type: cell-based, Escherichia coli; settings: Table 14
[1] = tested on: Pseudomonas aeruginosa H187; type: cell-based; settings: Table 15; in µg/mL
S. typhimurium 14028S = type: cell-based, Salmonella typhimurium; settings: Table 14
Candida albicans 105 = type: cell-based; settings: Table 15; in µg/mL
P. aeruginosa H374 = type: cell-based, Pseudomonas aeruginosa; settings: Table 14; in µg/mL
S. aureus (MRSA) = type: cell-based, Staphylococcus aureus; settings: Table 15, strain SAP0017; in µg/mL
HeLaS3 = assay: Anti-cancer assay, MTT, LD50; type: cell-based; settings: 24 hours with peptide, cervical carcinoma
Description: (§1) Numbers are LD50 values (μg/mL).

BMKC = assay: Anti-cancer assay, MTT, LD50; type: cell-based; settings: BMKC cloned melanoma line, 24 hours with peptide
Description: as §1

H1299 = assay: Anti-cancer assay, MTT, LD50; type: cell-based; settings: 24 hours with peptide, lung large cell carcinoma
Description: as §1

PC3 = assay: Anti-cancer assay, MTT, LD50; type: cell-based; settings: 24 hours with peptide, prostate adenocarcinoma
Description: as §1

SW480 = assay: Anti-cancer assay, MTT, LD50; type: cell-based; settings: SW480 colon adenocarcinoma line, 24 hours with peptide
Description: as §1

MCF7 = assay: Anti-cancer assay, MTT, LD50; type: cell-based; settings: MCF7 breast adenocarcinoma line, MTT, 24 hours with peptide
Description: as §1

[2] = tested on: Staphylococcus aureus ATCC 6538; assay: Antimicrobial assay I, MIC by OD measurement; type: cell-based; settings: 37° C. for 24 hours, absorbance 620 nm
[3] = tested on: Pseudomonas aeruginosa ATCC 9027; assay: Antimicrobial assay I, MIC by OD measurement; type: cell-based; settings: 37° C. for 24 hours, absorbance 620 nm
[4] = tested on: human leukocyte (WBC) cells; assay: Stimulation and proliferation of leukocytes, Alamar Blue; type: cell-based; settings: for Peptide treated cell activity Percent stimulation relative to control: 48 hours
Protocol: In vitro viability of human leukocyte cells in the presence of different peptides at different concentrations was determined by an Alamar Blue protocol. Alamar Blue (Promega, Madison, Wis.) is an indicator dye, formulated to measure quantitatively the proliferation and cytotoxicity of the cells. The dye consists of an oxidation-reduction (redox) indicator that yields a calorimetric change and a fluorescent signal in response to cellular metabolic activity.
Assay protocol: Blood from a human was drawn and centrifuged at 1500 rpm for 15 minutes at room temperature. The buffy coat cells at the plasma-red blood cell interface were aspirated. Buffy coat cells (mainly lymphocyte cells) were then transferred into 15 ml centrifuge tubes containing 5 ml of RPMI-1640 medium+10% Fetal Bovine Serum (Gibco, Grand Island, N.Y.). Additional medium was added to the tubes to bring the volume up to 10 ml. The buffy coat suspension was then carefully layered on 5 ml of Histopaque (Sigma Chemical Co., St. Louis, Mo.) and centrifuged at 1500 rpm for 30 minutes at room temperature. The interface which is mostly PBMCs (peripheral mononuclear cells) was aspirated and transferred to a 15 ml conical centrifuge tube and, resuspended in 2 ml cold RPMI-1640 and brought up to 15 ml with cold RPMI-1640 medium. Cells were centrifuged at 1500 rpm for 10 minutes. The supernatant was then aspirated and discarded. The cell pellet was re-suspended in 1 ml of cold RPMI 1640 and brought up to 15 ml with RPMI medium. This step was repeated twice, except that in the last step, the cells were resuspended with 1 ml of cold RPMI-1640 medium and cell counts were performed with a hemocytometer according to the Sigma cell culture catalogue.
Pokewood mitogen was used as a control along with positive and negative controls. Negative control cells were killed with 70% methanol. Positive (+) control cells were incubated in RPMI medium (untreated). […] of AlamarBlue was added to the cells, and readings were taken after 24 hours, 48 hours, 72 hours, and 96 hours using a fluorimeter (excitation 544/transmission 590 nm).
Calculations were performed using the following formula. The peptide treated sample and positive control were adjusted for negative control. [formula]
Using the protocol described immediately above, about 100-150 peptides were screened for their stimulatory and/or inhibitory actions upon the growth of human leukocyte (“WBC”) cells as compared to the growth of untreated positive control cells.
The Alamar Blue stain used in the protocol permeates both cell and nuclear membranes, and is metabolized in the mitochondria to cause the change in color. The resulting fluorometric response is therefore a result of total mitochondrial activity caused by cell stimulation and/or mitosis (cell proliferation).

[5] = tested on: human red blood cells (RBC); assay: in vitro; type: cell-based; settings: for Peptide toxicity RBC LD/50: human red blood cells
WI38 = settings: MTT, 24 hours with peptide
[6] = tested on: yeast (Saccharomyces cerevisiae); assay: Antimicrobial assay I, yeast assay in RPMI 1640; type: cell-based; settings: RPMI 1640 media
in vitro = settings: human, WI38 normal lung fibroblast cells, Peptide toxicity WI-38 LD/50, human fibroblast cells

| Substance | MIC S. epidermidis C621 (S. epidermidis C621) | MIC E. coli UB1005 (E. coli UB1005) | MIC P. aeruginosa H187 [1] | MIC S. typhimurium 14028S (S. typhimurium 14028S) | MIC C. albicans 105 (Candida albicans 105) | MIC P. aeruginosa H374 (P. aeruginosa H374) | MIC S. aureus SAP0017 (S. aureus (MRSA)) | other results |
| --- | --- | --- | --- | --- | --- | --- | --- | --- |
| YAKLLAKLAKKAL-NH2 [P155 (117)] | > 128 µg/mL | > 128 µg/mL | >128 | > 128 µg/mL | >128 | >128 | >128 |  |
| FALKALKK-NH2 [P145 (107)] | > 128 µg/mL | > 128 µg/mL | >128 | > 128 µg/mL | 64 | >128 | >128 |  |
| FAKLLAKKLL-NH2 [P57 (37)] | > 128 µg/mL | > 128 µg/mL | >128 | > 128 µg/mL | 128 | >128 | >128 |  |
| FAKLFAKLAKKFAL-NH2 [P121 (83)] | > 128 µg/mL | > 128 µg/mL | >128 | > 128 µg/mL | 64 | >128 | >128 |  |
| FAKLAKKALAKLL-NH2 [P148 (110)] | 128 µg/mL | 128 µg/mL | >128 | > 128 µg/mL | 128 | >128 | >128 |  |
| FALKALKKAL-NH2 [P170 (131)] | > 128 µg/mL | 64 µg/mL | >128 | > 128 µg/mL | 128 | >128 | 0.128 |  |
| FAFGKGIGKIGKKGL-NH2 [P138 (100)] | > 128 µg/mL | > 128 µg/mL | >128 | > 128 µg/mL | >128 | >128 | >128 |  |
| VALALKALKKL-NH2 [P180 (141)] | > 128 µg/mL | > 128 µg/mL | >128 | > 128 µg/mL | >128 | >128 | >128 |  |
| FAKLLAKLAKK-NH2 [P151 (113)] | > 128 µg/mL | > 128 µg/mL | >128 | > 128 µg/mL | 128 | 128 | >128 |  |
| FALALKAKKL-NH2 [P182] |  |  |  |  |  |  |  | HeLaS3 LD50 (HeLaS3): > (> indicates greater than 1000); LD50 BMKC (BMKC): > (> indicates greater than 1000); H1299 LD50 (H1299): > (> indicates greater than 1000); PC3 LD50 (PC3): > (> indicates greater than 1000); LD50 SW480 (SW480): > (> indicates greater than 1000); LD50 MCF7 (MCF7): > (> indicates greater than 1000); staph6538 (MIC) [2]: > (> indicates greater than 200 μg/mL); paerug9027 (MIC) [3]: > (> indicates greater than 200 μg/mL); stimulatory and/or inhibitory action on growth of human leukocyte (WBC) cells ([4]; compared to untreated positive control cells, Alamar Blue): stimulatory (and/or proliferative) at all concentrations through 500 μg/ml; LD50 ([5]; hemolytic assay, concentration at 50% hemolysis, 1 hour at 37° C.): > (> indicates greater than 1000); WI38 LD50 (WI38; normal fibroblast line): > (> indicates greater than 1000); LD50 WI38 (WI38; WI38 normal lung fibroblast line): > (> indicates greater than 1000); yeast (MIC or MFC) [6]: > (> indicates greater than 200 μg/mL) |
| FALALKALKKLKKALKKAL-NH2 [compound 12] |  |  |  |  |  |  |  | CC50 at 24 h (in vitro): 37 µg/mL; Peptide treated cell activity Percent stimulation relative to control ([4]; 0.1 ug/ml): 108%; Peptide treated cell activity Percent stimulation relative to control ([4]; 1 ug/ml): 110%; Peptide treated cell activity Percent stimulation relative to control ([4]; 10 ug/ml): 99%; Peptide treated cell activity Percent stimulation relative to control ([4]; 100 ug/ml): 30%; Peptide treated cell activity Percent stimulation relative to control ([4]; 500 ug/ml): 23%; Peptide toxicity RBC LD/50 [5]: 125 |
| FALALKALKKLAKKLKKLAKKAL-NH2 [compound 10] |  |  |  |  |  |  |  | CC50 at 24 h (in vitro): 24 µg/mL; Peptide treated cell activity Percent stimulation relative to control ([4]; 0.1 ug/ml): 117%; Peptide treated cell activity Percent stimulation relative to control ([4]; 1 ug/ml): 104%; Peptide treated cell activity Percent stimulation relative to control ([4]; 10 ug/ml): 99%; Peptide treated cell activity Percent stimulation relative to control ([4]; 100 ug/ml): 27%; Peptide treated cell activity Percent stimulation relative to control ([4]; 500 ug/ml): 27%; Peptide toxicity RBC LD/50 [5]: 60 |
